Source: ChEMBL document CHEMBL1201862, “PubChem BioAssay data set” (2004)
Activity calls are given as the source filed them.

Tests used:
[1] = biological target: Melanin-concentrating hormone receptor 1 (Homo sapiens, UniProt Q99705); assay: Fluorescence-based counterscreen for antagonists of the G-protein coupled receptor 7 (GPR7): cell-based high throughput dose response assay to identify antagonists of the melanin-concentrating hormone receptor 1 (MCHR1).; format: functional
[2] = biological target: T1, Neuropeptides B/W receptor type 1 (Homo sapiens, UniProt P48145); assay: Fluorescence-based dose response cell-based high throughput screening assay to identify antagonists of the G-protein coupled receptor 7 (GPR7). [Related pubchem assays: 1952 (Screening assay (GPR7 antagonists).), 1880 (Summary AID.)]; format: functional
T1 sequence (P48145 whole entry): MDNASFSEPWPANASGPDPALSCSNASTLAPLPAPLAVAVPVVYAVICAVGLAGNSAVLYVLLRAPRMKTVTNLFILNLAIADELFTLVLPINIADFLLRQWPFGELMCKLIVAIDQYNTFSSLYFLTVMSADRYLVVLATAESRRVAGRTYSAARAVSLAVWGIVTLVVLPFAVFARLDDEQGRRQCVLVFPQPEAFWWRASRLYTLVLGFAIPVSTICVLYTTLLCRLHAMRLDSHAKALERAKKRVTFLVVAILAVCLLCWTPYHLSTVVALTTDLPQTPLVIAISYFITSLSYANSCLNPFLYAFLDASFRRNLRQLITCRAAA

Cytochrome P450 3A4 = Cytochrome P450 3A4 (Homo sapiens, UniProt P08684);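 further: CYP3A4 tested as one member of a cytochrome P450 panel screen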
Chain of Cytochrome P450 3A4 (P08684 whole entry): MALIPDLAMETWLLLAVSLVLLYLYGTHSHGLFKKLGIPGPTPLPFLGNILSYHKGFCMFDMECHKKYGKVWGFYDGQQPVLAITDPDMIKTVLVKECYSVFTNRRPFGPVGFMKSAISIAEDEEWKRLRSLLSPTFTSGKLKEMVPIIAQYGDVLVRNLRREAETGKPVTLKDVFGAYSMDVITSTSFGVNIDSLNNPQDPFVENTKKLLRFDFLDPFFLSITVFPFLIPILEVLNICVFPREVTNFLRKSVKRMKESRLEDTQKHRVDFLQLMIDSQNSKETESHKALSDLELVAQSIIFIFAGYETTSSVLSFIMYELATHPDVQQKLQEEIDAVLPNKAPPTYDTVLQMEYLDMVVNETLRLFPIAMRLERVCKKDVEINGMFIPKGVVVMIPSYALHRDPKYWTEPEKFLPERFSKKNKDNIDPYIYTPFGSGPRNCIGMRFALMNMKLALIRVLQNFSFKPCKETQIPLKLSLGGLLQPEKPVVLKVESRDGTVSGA

Streptokinase A = biological target: T2, Streptokinase A (Streptococcus pyogenes serotype M1, UniProt P10520); assay: viability-normalized secreted streptokinase activity reduction – plasminogen activation absorbance, OD405, dose response (AID 1914); format: functional, Streptococcus pyogenes M1 GAS;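 further: secreted streptokinase activity via plasminogen activation per viability signal from cell pellet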
T2 sequence (P10520 whole entry): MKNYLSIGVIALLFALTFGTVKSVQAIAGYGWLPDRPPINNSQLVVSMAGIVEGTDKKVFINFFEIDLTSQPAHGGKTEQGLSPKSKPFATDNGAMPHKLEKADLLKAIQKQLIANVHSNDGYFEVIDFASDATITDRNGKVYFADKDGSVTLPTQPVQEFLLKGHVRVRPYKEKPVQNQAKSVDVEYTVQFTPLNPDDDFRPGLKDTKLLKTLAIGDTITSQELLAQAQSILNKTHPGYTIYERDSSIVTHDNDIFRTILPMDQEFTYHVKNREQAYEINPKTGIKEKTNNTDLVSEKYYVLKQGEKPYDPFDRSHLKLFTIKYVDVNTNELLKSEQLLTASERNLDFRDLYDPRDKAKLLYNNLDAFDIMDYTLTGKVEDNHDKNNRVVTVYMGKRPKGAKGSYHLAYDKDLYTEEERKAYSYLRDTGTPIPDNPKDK

HEK293 [3] = assay: cells; conditions: Homo sapiens
[4] = system: Streptococcus sp. 'group A'; assay: Streptococcus pyogenes SK(-)GAS viability under kanamycin – luminescence, BacTiterGlo, confirmation, counter-screen for streptokinase expression inhibitor project, dose response (AID 1900); format: functional, organism-based
Streptococcus = assay: GAS UMAA2166 growth inhibition – luminescence, BacTiterGlo, counter-screen for streptokinase expression inhibitor project, dose response (AID 1915); format: functional, organism-based;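 further: potency for reduction of bacterial viability or growth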
HEK293 [5] = assay: cells; conditions: Homo sapiens; remark: listed apart in the source
[6] = Trypanosoma cruzi growth suppression in host cells – NIH3T3 host cells, beta-gal luminescence, confirmation (AID 2044); format: functional, cell-based;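 further: intracellular parasites grown in NIH/3T3 mouse fibroblasts as host cells; luminescent beta-galactosidase reporter signal from transgenic T. cruzi replicating inside host cells; inhibitors lower the luminescence signal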
[7] = NIH3T3 cell viability loss – ATP luminescence, mouse fibroblasts, counter-screen, dose response (AID 2010); format: functional, cell-based;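 further: cells exposed to compound for about 90 hours before reading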
[8] = HepG2 cell cytotoxicity, dose response, cytotoxicity control for non-replicating M. tuberculosis project (AID 489018); format: functional; conditions: Mycobacterium tuberculosis
cells = format: functional
[9] = Vero E6 cell cytotoxicity, dose response, cytotoxicity control for non-replicating M. tuberculosis project, secondary assay (AID 492998); format: functional, VeroE6; conditions: Vero C1008
[10] = biological target: T3, Microphthalmia-associated transcription factor (Homo sapiens, UniProt O75030); assay: reducers of TRPM1 reporter luminescence, concentration series – cell-based, SK-MEL-5, cherry-picked, set 3, MITF inhibitor project, dose response (AID 493073); format: functional;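 further: SK-MEL-5 melanoma cells with luciferase driven by the MITF target TRPM1 promoter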
T3 sequence (O75030 whole entry): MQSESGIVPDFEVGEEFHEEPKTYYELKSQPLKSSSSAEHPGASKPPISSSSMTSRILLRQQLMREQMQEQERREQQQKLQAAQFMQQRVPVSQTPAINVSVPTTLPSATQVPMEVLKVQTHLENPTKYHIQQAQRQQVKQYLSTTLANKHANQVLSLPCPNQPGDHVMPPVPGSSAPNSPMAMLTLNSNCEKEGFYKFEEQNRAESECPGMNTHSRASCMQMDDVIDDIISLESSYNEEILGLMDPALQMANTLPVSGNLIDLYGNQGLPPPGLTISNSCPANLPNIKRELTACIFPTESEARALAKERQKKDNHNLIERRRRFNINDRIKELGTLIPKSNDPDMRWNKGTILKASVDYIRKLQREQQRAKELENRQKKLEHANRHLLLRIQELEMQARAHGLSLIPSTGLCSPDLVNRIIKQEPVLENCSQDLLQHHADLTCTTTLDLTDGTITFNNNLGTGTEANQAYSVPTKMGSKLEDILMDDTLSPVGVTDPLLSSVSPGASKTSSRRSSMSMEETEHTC

A-375 = assay: MITF: Counter assay: A375 proliferation Measured in Cell-Based System Using Plate Reader - 2084-03_Inhibitor_Dose_DryPowder_Activity. [Related pubchem assays (depositor defined):AID488944]; format: functional; conditions: Homo sapiens
[11] = THP-1 cell cytotoxicity, dose response, cytotoxicity control for non-replicating M. tuberculosis project (AID 489025); format: functional
[12] = biological target: T4, Heat shock factor protein 1 (Mus musculus, UniProt P38532); assay: enhancement of HSF1-driven luciferase signal – cell-based, NIH3T3, luminescence, dose retest, confirmation (AID 435004); format: functional;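 further: stress induced by proteasome inhibitor MG132 added 30 min after compound; luciferase reporter driven by HSF1 response element in NIH3T3 cells; actives raise luminescence as potentiators of the MG132 stress response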
T4 sequence (P38532 whole entry): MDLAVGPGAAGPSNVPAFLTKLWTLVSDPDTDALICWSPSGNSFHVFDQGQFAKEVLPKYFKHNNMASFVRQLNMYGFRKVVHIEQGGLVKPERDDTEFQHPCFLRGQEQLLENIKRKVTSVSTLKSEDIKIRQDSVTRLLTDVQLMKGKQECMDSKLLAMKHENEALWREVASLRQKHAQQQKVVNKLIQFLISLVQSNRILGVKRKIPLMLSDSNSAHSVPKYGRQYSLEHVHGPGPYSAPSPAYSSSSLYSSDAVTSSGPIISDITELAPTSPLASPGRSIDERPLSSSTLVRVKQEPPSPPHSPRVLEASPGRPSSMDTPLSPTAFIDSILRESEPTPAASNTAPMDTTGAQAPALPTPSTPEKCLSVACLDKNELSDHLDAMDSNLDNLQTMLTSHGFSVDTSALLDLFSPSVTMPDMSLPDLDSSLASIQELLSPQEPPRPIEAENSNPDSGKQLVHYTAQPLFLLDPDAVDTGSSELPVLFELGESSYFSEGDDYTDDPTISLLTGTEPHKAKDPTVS

[13] = microbe, parasite or virus in culture; format: functional; conditions: Mycobacterium tuberculosis
Escherichia coli = assay: microbe, parasite or virus in culture
Cytochrome P450 2C9 = Cytochrome P450 2C9 (Homo sapiens, UniProt P11712)
Chain of Cytochrome P450 2C9 (P11712 whole entry): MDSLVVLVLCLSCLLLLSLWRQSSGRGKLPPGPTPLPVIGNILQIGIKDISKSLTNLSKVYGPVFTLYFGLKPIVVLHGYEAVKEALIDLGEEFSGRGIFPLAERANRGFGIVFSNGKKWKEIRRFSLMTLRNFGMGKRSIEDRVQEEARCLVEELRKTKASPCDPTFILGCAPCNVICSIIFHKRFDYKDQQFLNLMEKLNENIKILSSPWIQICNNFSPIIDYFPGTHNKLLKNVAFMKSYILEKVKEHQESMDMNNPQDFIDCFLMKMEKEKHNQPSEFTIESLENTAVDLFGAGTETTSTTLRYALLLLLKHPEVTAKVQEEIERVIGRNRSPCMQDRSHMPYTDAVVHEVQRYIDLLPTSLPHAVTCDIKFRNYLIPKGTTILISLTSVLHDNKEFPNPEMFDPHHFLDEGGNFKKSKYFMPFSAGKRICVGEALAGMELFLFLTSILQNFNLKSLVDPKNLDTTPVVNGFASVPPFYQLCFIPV

[14] = biological target: T5, Replicative DNA helicase DnaB (Mycobacterium tuberculosis, UniProt P9WMR3); assay: DnaB intein splicing inhibitors, dose response, biochemical, cell-free fluorescence (AID 449749); format: functional
T5 sequence (P9WMR3 whole entry): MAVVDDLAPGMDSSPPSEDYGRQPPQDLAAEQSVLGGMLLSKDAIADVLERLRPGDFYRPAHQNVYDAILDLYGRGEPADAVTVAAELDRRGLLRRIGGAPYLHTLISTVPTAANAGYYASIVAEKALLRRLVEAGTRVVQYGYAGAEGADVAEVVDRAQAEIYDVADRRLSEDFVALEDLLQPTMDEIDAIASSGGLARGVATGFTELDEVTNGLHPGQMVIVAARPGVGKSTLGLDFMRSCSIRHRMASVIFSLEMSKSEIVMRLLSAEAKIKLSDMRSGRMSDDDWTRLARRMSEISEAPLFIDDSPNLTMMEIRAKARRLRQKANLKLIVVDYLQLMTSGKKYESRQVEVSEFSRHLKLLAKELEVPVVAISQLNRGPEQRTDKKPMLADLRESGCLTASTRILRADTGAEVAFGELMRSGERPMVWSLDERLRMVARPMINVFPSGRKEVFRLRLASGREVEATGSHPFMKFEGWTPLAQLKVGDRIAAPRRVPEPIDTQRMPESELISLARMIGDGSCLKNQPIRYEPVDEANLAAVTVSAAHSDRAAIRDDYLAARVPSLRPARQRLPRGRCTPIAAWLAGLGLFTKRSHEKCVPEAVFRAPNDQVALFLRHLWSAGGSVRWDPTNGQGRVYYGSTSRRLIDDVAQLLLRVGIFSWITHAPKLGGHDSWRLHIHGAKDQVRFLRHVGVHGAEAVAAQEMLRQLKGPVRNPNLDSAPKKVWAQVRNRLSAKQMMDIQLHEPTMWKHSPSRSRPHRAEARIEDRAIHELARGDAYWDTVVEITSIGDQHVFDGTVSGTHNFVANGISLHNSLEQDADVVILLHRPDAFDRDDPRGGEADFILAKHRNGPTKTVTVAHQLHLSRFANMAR

[15] = viability loss in HepG2 hepatoma cells – cell-based, ATP luminescence, cherry-pick, activator set 2, cytotoxicity control, dose response (AID 1053143); format: functional
Protein RecA = biological target: T6, Protein RecA (Mycobacterium tuberculosis, UniProt P9WHJ3); assay: Fluorescence Cell-Free Homogeneous Dose Retest to Identify Inhibitors of RecA-Intein Splicing Activity. [Related pubchem assays (depositor defined):AID2097, AID2223, AID489010, AID492950]; format: functional
T6 sequence (P9WHJ3 whole entry): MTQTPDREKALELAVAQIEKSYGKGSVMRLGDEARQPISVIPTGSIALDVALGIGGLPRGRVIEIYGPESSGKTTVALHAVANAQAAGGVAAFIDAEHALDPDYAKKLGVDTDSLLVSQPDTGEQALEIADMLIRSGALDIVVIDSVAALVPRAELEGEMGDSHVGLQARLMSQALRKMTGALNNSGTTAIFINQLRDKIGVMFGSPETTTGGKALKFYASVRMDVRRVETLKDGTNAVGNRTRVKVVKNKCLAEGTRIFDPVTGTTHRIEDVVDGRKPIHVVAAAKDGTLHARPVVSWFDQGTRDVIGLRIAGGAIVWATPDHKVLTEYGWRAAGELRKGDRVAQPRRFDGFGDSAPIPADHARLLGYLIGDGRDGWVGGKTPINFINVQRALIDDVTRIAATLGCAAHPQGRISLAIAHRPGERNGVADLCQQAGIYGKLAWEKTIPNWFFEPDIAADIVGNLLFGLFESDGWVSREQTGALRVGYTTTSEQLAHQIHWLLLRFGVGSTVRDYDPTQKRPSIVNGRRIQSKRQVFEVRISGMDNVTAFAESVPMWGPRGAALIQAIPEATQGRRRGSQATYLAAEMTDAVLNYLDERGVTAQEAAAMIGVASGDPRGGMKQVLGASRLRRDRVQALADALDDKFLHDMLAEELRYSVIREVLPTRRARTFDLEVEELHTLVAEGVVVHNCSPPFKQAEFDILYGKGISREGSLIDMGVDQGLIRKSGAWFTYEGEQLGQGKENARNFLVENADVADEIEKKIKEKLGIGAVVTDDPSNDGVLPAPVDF

Chain of Melanin-concentrating hormone receptor 1 (Q99705 whole entry): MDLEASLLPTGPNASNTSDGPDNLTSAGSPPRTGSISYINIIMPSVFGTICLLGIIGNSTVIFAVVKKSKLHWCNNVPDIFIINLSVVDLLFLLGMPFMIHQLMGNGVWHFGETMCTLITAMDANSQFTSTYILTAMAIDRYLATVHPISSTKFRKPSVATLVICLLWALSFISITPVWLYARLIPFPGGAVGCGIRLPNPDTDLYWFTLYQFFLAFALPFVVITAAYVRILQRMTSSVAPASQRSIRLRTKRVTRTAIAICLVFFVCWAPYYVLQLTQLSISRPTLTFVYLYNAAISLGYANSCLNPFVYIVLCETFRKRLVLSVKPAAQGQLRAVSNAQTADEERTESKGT

Cc1ccccc1Oc1ncnc2oc(-c3ccccc3)cc12
IC50 [1]: 24.3 µM (not active) | IC50 [2]: > 43.8 µM (not active) | AC50 (Cytochrome P450 3A4): inconclusive

Fc1ccc(-n2cc(-c3ccccc3)c3c(S)ncnc32)cc1
EC50 (Streptokinase A): > 150 µM (not active) | EC50 (HEK293 [3]): > 59.6 µM (inactive) | EC50 [4]: 12.1 µM (active) | EC50 (Streptococcus): > 150 µM (not active) | EC50 (HEK293 [5]): > 59.6 µM (inactive)

CC(C)(C)c1ccc(Cn2c(=N)n(CC(O)c3ccco3)c3ccccc32)cc1 (stereo not given)
EC50 [6]: 2.12 µM (active) | EC50 [7]: > 60 µM (not active) | CC50 [8]: 9.26 µM (active) | IC50 (cells): 22 µM (active) | CC50 [9]: 15.7 µM (active) | AC50 [10]: 11.8 µM (active) | AC50 (A-375): 18.6 µM (active) | CC50 [11]: 9.05 µM (active) | EC50 [12]: > 260 µM (inactive) | CC50 [13]: 11.9 µM (active)

O=C(Nc1ccccc1F)c1ccc([N+](=O)[O-])s1
EC50 [6]: 0.614 µM (active) | EC50 [7]: > 30 µM (not active) | AC50 (Escherichia coli): 27.5 µM (active) | IC50 (cells): 4.91 µM (active) | CC50 [9]: > 20 µM (active) | CC50 [11]: 28.8 µM (active)

CCOC(=O)N1CCN(CC(=O)c2ccc3c(c2)CCN3)CC1
AC50 (Cytochrome P450 2C9): 17.8 µM (inconclusive) | AC50 (Cytochrome P450 3A4): inconclusive

CO[C@H]1C=CO[C@@]2(C)Oc3c(C)c(O)c4c(O)c(c(C=NN5CCN(C)CC5)c(O)c4c3C2=O)NC(=O)C(C)=CC=C[C@H](C)[C@H](O)[C@@H](C)[C@@H](O)[C@@H](C)[C@H](OC(C)=O)[C@@H]1C
AC50 (Escherichia coli): 14.8 µM (active) | EC50 [4]: < 0.06 µM (active) | EC50 (Streptococcus): < 0.06 µM (active)

COc1ccccc1NC(=O)c1cnc(SCC(=O)NCC2CCCO2)n(C)c1=O (stereo not given)
EC50 (HEK293 [3]): > 59.6 µM (inactive) | AC50 [14]: 9.19 µM (active) | AC50 [15]: 42.4 µM (active) | EC50 (Protein RecA): 10.8 µM (active) | AC50 [10]: 8.88 µM (active) | EC50 (HEK293 [5]): > 59.6 µM (inactive)
